According to PMC12669039 (Nature Microbiology, 2025):
pIC50: −log10 of the molar value.

Molecular target: T1, HSV-1 helicase–primase (HP) complex (UL5/UL52/UL8) (Human alphaherpesvirus 1 strain 17, UniProt P10189+P10236)
T1 sequence (P10189 1-882): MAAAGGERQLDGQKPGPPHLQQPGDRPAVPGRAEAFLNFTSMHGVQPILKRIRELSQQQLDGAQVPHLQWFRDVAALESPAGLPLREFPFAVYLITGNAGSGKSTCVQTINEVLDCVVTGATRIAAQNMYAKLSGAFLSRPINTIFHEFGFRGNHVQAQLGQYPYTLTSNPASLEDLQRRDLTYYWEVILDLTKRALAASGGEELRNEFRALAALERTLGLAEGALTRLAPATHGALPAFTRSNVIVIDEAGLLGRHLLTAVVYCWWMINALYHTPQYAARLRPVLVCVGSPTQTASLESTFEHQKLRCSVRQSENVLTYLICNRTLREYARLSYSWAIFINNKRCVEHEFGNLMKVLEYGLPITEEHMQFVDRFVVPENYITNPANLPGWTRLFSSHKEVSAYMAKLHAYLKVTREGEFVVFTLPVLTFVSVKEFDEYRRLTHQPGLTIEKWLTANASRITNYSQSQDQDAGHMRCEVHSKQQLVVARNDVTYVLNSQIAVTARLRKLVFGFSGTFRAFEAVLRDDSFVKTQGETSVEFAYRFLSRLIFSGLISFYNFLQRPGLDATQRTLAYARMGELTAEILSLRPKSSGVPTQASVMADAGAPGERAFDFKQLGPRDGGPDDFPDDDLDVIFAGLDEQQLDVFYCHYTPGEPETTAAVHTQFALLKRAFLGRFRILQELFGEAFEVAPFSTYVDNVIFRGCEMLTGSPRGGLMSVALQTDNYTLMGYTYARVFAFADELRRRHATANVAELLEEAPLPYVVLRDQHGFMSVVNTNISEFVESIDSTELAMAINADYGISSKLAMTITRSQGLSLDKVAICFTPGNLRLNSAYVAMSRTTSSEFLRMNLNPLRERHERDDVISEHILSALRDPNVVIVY
T1 sequence (P10236 1-1058): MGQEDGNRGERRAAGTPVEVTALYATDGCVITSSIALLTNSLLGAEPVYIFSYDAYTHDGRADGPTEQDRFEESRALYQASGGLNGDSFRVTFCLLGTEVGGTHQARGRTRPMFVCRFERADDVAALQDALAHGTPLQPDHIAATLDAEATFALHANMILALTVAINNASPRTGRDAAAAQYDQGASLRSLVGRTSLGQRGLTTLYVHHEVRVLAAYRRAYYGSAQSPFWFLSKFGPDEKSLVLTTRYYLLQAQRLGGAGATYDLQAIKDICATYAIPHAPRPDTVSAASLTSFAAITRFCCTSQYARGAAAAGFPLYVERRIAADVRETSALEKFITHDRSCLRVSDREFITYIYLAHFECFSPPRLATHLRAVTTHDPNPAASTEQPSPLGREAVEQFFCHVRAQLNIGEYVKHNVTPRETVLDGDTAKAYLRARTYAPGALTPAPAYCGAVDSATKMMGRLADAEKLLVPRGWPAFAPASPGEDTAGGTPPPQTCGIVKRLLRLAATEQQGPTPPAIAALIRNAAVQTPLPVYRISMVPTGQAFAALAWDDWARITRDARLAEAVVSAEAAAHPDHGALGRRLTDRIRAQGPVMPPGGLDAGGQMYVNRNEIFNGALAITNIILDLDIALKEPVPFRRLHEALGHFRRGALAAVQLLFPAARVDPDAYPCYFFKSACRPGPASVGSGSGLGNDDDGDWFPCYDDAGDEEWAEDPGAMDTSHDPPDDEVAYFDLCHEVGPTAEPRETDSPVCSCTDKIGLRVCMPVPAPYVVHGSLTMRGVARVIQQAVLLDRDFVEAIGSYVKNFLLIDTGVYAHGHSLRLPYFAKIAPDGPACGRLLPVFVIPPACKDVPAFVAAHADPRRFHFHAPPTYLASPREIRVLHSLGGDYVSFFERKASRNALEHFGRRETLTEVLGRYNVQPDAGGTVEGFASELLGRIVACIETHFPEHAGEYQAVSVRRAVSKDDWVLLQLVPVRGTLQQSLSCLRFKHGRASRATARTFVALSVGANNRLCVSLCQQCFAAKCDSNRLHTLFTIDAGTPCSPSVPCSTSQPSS
T1 sequence (P10192 1-750 partner): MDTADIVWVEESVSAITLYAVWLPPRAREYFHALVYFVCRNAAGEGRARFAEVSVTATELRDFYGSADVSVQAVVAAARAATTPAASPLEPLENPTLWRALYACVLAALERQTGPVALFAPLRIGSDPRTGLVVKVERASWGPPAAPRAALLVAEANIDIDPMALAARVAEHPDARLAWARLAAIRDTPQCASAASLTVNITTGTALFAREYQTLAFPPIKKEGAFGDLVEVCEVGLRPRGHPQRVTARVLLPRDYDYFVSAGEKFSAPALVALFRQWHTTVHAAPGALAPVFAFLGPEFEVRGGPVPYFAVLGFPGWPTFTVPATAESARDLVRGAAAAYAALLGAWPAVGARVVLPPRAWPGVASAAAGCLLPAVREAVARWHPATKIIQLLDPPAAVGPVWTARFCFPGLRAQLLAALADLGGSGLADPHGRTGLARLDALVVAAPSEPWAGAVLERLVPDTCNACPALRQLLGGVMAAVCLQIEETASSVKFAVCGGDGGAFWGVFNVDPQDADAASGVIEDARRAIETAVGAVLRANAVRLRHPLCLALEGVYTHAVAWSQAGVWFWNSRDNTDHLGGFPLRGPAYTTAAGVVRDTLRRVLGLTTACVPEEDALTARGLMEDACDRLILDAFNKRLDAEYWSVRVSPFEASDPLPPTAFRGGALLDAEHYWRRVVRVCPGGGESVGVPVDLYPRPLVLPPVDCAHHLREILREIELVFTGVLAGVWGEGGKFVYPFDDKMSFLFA
Assay: fluorescent forked-DNA unwinding
Type: biochemical

| SMILES | pIC50 |
| --- | --- |
| Cc1nc(N(C)C(=O)Cc2ccc(-c3ccccn3)cc2)sc1S(N)(=O)=O [PTV, pritelivir] | 7.95 |
| Cc1cccc(C)c1N(CC(=O)Nc1ccc(-c2ncon2)cc1)C(=O)C1CCS(=O)(=O)CC1 [AMNV, amenamevir] | 8.46 |
